Entries after “also recorded” stand apart in the source; their conditions may differ.
Key:
TgCRND8 mice [1] = test: Morris Water Maze spatial reference memory test; assay type: in vivo, mouse; details: for spatial memory / cognition compared to untreated TgCRND8 mice / spatial memory compared to non-Tg littermates: one month treatment from 5 months of age; for effect on non-Tg littermate performance: one month treatment
Protocol: (§1) Behavioural tests: Morris Water Maze testing was performed as previously described. After non-spatial pre-training, mice underwent place discrimination training for 5 days with 4-trials per day, followed by a cued visible platform to rule out general motivational, learning deficits and motor problems, and a probe trial to evaluate memory. […] Open field test for motor activity was preformed as described previously. Duration of walking, pausing and grooming were analyzed as indices of spontaneous locomotor activity. Sensorimotor function was examined with an Economex™ accelerating rotarod (Columbus Instruments, Columbus, Ohio), as described elsewhere. The rod was set to accelerate at a rate of 0.2 r.p.m./s, from an initial, constant speed of 5 r.p.m. Latency to fall was recorded in four daily trials, conducted at 30 min intervals. All mice were trained for seven days before testing. The test day performance score for each animal was obtained by summing its latency to fall over the four trials
Behavioural tests: Behavioural analyses were performed using the Morris Water Maze test (13, 14). After pre-spatial training, mice underwent place discrimination training for 5 days with 4 trials per day, followed by a cued visible platform to rule out general motivational, learning deficits and motor problems. […] Open field test for motor activity was performed as described previously. Duration of walking, pausing, rearing and grooming were analyzed as indices of spontaneous locomotor activity.

Aβ40 = molecular target: T1, Aβ40 (Homo sapiens, UniProt P05067); test: Cerebral Aβ content: brain Aβ40 (ELISA kit); assay type: in vivo, mouse; details: TgCRND8 mice with pre-existing disease; 28 day treatment from 5 months of age
T1 construct: from tissue; host or cells: hemi-brain homogenate of TgCRND8 transgenic mice
T1 sequence (P05067 672-711): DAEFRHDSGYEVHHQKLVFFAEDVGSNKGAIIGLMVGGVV
Protocol: (§2) Plasma and Cerebral Aβ Content. Hemi-brain samples were homogenized in a buffered sucrose solution, followed by either 0.4% diethylamine/100 mM NaCl for soluble Aβ levels or cold formic acid for the isolation of total Aβ. After neutralization, the samples were diluted and analyzed for Aβ40 and Aβ42 using commercially available kits (BIOSOURCE International). Each hemisphere was analyzed in triplicate and the mean values±SEM reported. Western blot analyses were performed on all fractions using urea gels for Aβ species analyses. Aβ was detected using 6E10 (BIOSOURCE International) and Enhanced Chemiluminenscence (Amersham).
(§3) Cerebral Aβ Content. Hemi-brain samples were homogenized in a buffered sucrose solution, followed by either 0.4% diethylamine/100 mM NaCl for soluble Aβ levels or cold formic acid for the isolation of total Aβ [22]. After neutralization the samples were diluted and analyzed for Aβ40 and Aβ42 using commercially available kits (BIOSOURCE International). Each hemisphere was analyzed in triplicate with the mean±SEM reported. Plasma was diluted and run directly on the ELISA.

TgCRND8 mice [2] = test: Cerebral amyloid plaque burden (anti-Aβ immunostaining, image analysis); assay type: in vivo, mouse
Protocol: Cerebral amyloid burden. Brains were removed and one hemisphere was fixed in 4% paraformaldehyde and embedded in paraffin wax in the mid sagittal plane. To generate sets of systematic uniform random sections, 5 μm serial sections were collected across the entire hemisphere. Sets of sections at 50 μm intervals were used for analyses (10-14 sections/set). Plaques were identified after antigen retrieval with formic acid, and incubation with primary anti-Aβ antibody (Dako M-0872), followed by secondary antibody (Dako StreptABCcomplex/horseradish kit). End products were visualized with DAB and were counter-stained with luxol fast blue. Amyloid plaque burden was assessed with Leco IA-3001 image analysis software interfaced with Leica microscope and Hitachi KP-M1U CCD video camera. Openlab imaging software (Improvision, Lexington, Mass.) was then used to convert micrographs to binary images for plaque number and plaque area determinations. Vascular amyloid burden was defined as amyloid originating from or surrounding blood vessels and was analysed similarly.

TgCRND8 mice [3] = test: Gliosis quantitation (GFAP astrocytes, CD68 microglia); assay type: in vivo, mouse
Protocol: Gliosis Quantitation. Five randomly selected, evenly spaced, sagittal sections were collected from paraformaldehyde-fixed and frozen hemispheres of treated and control mice. Sections were immunolabelled for astrocytes with anti-rat GFAP IgG2a (Dako; diluted 1:50) and for microglia with anti-rat CD68 IgG2b (Dako; 1:50). Digital images were captured using a Coolsnap digital camera (Photometrics, Tuscon, Ariz.) mounted to a Zeiss, Axioscope 2 Plus microscope. Images were analysed using Openlab 3.08 imaging software (Improvision, Lexington Mass.).

TgCRND8 mice [4] = test: Survival census (Kaplan-Meier); assay type: in vivo, mouse; details: for Kaplan Meier cumulative survival: compared to untreated TgCRND8 mice
Protocol: (§4) Survival Census: The probability of survival was assessed by the Kaplan-Meier technique, computing the probability of survival at every occurrence of death, thus making it suitable for small sample sizes. For the analyses of survival, 35 mice were used for each treatment group. The Tarone-Ware test was used to assess effects of treatments.
as §4, with “technique” for “technique,”, “30” for “35”

neurons = details: cited from earlier work
Aβ42 [5] = molecular target: T2, Aβ42 (Homo sapiens, UniProt P05067); test: Plasma Aβ42 levels; assay type: in vivo, mouse; parameters: from tissue; host or cells: plasma of TgCRND8 transgenic mice; details: TgCRND8 mice following 28 days of therapy at five months of age
Protocol: as §2, §3
Target sequence in this assay (P05067 672-713): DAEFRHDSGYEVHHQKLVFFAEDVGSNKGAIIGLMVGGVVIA

Aβ42 [6] = molecular target: T2, Aβ42; test: Cerebral Aβ content: brain Aβ42 (ELISA kit); assay type: in vivo, mouse; parameters: from tissue; host or cells: hemi-brain homogenate of TgCRND8 transgenic mice; details: TgCRND8 mice with pre-existing disease; 28 day treatment from 5 months of age
Protocol: as §2, §3
Target sequence in this assay (P05067 672-713 limits assumed): as the sequence (P05067 672-713) above

Pilot in vivo studies = details: data not shown
Aβ = details: reference [11]; cited from earlier work
[7] = 6-18 grams/day/adult or 86-257 mg/Kg/day; reference [21]; cited from earlier work
TgCRND8 mice [8] = test: Synaptophysin quantification by western blotting (hippocampus); assay type: in vivo, mouse
Protocol: Synaptophysin protein levels were determined in treated and control mice by western blotting. Sections were immunoblotted for synaptophysin with anti-synaptophysin IgG (1:40; Roche, Laval, PQ) or GAPDH IgG (1: 10,000; Biodesign International) as a loading control. Films were scanned before analyses using NIH Image analyses combined with densitometry. Synaptophysin values were normalized to the loading control for each sample. Statistical analyses were determined using factorial ANOVA with Fishers PLSD as a post-hoc test.

TgCRND8 mice [9] = test: Open field test for motor activity; assay type: in vivo, mouse; details: TgCRND8 mice and non-Tg littermates; drinking water 10 mg/ml, extended treatment
Protocol: as §1
(§5) Behavioural tests: Behavioural analyses were performed using the Morris Water Maze test (13, 14). […] Duration of walking, pausing, rearing and grooming were analyzed as indices of spontaneous locomotor activity.

TgCRND8 mice [10] = test: Cued visible platform test (Morris Water Maze); assay type: in vivo, mouse; details: one month treatment from 5 months of age
Protocol: as §1, §5

[11] = Hematology and serum biochemical analyses; assay type: in vivo, mouse
From the text: Blood was collected prior to sacrifice and samples were sent to VITA-TECH laboratories (Markham, ON, Canada) for analyses. Reference values were obtained from Zhou and Hansson.

[12] = mouse, in vivo
Protocol: Mice. […] This initial dosage was chosen based upon the dosage of myo-cyclohexanehexol (6-18 grams/day/adult or 86-257 mg/Kg/day) that is typically administered to human patients for various psychiatric disorders. […] A cohort of animals (n=10 mice per treatment arm) entered the study at five months of age, and outcomes were then analyzed after one month of treatment. The body weight, coat characteristics and in cage behaviour were monitored. Mannitol was used as a negative control for potential alterations in caloric intake. All experiments were performed according to the Canadian Council on Animal Care guidelines.
Mice. […] Cohorts of animals entered the study at 5 months of age and outcomes were analyzed after one month. Alternatively, cohorts of animals entered the prophylactic study at 6 weeks of age and outcome measures were analysed at 6-months of age. The body weight, coat characteristics and in cage behaviour was monitored. All experiments were performed according to the Canadian Council on Animal Care guidelines.

[13] = six month old TgCRND8 mice, 28 days of oral treatment beginning at five months of age
[14] = TgCRND8 mice, 4-month Prophylactic (oral from 6 weeks to 4 months of age)
[15] = TgCRND8 mice, 6-month Prophylactic (oral from 6 weeks to 6 months of age)
[16] = TgCRND8 mice, oral treatment for 28 days (1 month) from 5 months of age, analysed at 6 months
[17] = drinking water 10 mg/ml, listed as Epi-2-inosose
[18] = drinking water 10 mg/ml, prophylactic from 6 weeks until six months of age

Compound: 1,2,3,4,5/6-(epi-)cyclohexanehexol [epi-cyclohexanehexol]
- Non-Tg littermate behaviour under treatment (TgCRND8 mice [1]; non-Tg littermates, Morris Water Maze): not affected
- cognition compared to non-Tg mice (TgCRND8 mice [1]; prophylactic treatment, four months of age): significantly different from treated and untreated non-Tg mice
- cognition compared to non-Tg littermates (TgCRND8 mice [1]; prophylactic treatment, six months of age): approached that of non-Tg littermates
- spatial reference memory performance compared to non-Tg littermates (TgCRND8 mice [1]; [13]): significantly poorer than the performance of their non-Tg littermates; also recorded: remained impaired with respect to non-Tg littermates
- spatial reference memory performance compared to untreated TgCRND8 littermates (TgCRND8 mice [1]; [13]): not significantly different from that of untreated TgCRND8 littermates
- effect on brain Aβ40 levels (Aβ40): no significant impact
- amyloid (plaque) burden, immunostaining (TgCRND8 mice [2]; TgCRND8 mice at six months of age, hippocampus and cerebral cortex): modest effect on amyloid burden
- plaque burden (percent area of the brain covered with plaques, plaque number) (TgCRND8 mice [2]; TgCRND8 mice with pre-existing disease, one month treatment from 5 months of age): no significant impact
- Mean Plaque Size (TgCRND8 mice [2]; [14]): 95 ± 43 μm^2
- Total Plaque Area (TgCRND8 mice [2]; [14]): 65042 ± 5199 μm^2
- Mean Plaque Size (TgCRND8 mice [2]; [15]): 370 ± 9 μm^2
- Total Plaque Area (TgCRND8 mice [2]; [15]): 380456 ± 13498 μm^2
- Mean Plaque Size (TgCRND8 mice [2]; [16]): 346 ± 6 μm^2
- Total Plaque Area (TgCRND8 mice [2]; [16]): 459706 ± 49966 μm^2
- Total Plaque Count (TgCRND8 mice [2]; TgCRND8 mice, oral treatment for 28 days from 5 months of age, analysed at 6 months): 1342 ± 114
- percent brain area covered with microgliosis (TgCRND8 mice [3]; TgCRND8 mice): decreased the percent brain area covered with microgliosis
- astrogliosis / gliosis, anti-GFAP immunostaining (TgCRND8 mice [3]; TgCRND8 mice at six months of age): decrease in astrogliosis
- percent brain area covered in astrogliosis (TgCRND8 mice [3]; TgCRND8 mice, 4- and 6-months of age): decreased the percent brain area covered in astrogliosis at both 4- and 6-months of age
- Kaplan Meier cumulative survival (TgCRND8 mice [4]): did not significantly improve survival
- activity against synthetic Aβ42 neurotoxicity (neurons): protects neurons from synthetic Aβ42 cytotoxicity
- Plasma Aβ42 levels (Aβ42 [5]): 1079 ± 79 pg/mL
- effect on brain Aβ42 levels (Aβ42 [6]): no significant impact

Compound: O[C@H]1[C@H](O)[C@@H](O)[C@H](O)[C@@H](O)[C@H]1O [myo-cyclohexanehexol, 1,2,3,5/4,6-(myo-)cyclohexanehexol]
- benefit in pilot in vivo studies (Pilot in vivo studies): no significant benefit
- effectiveness in prior in vitro studies (Aβ): only weakly effective
- toxicity [7]: no toxicity in humans or animals

Compound: epi-2-inosose
- spatial memory / cognition compared to untreated TgCRND8 mice (TgCRND8 mice [1]; drinking water 10 mg/ml): significantly better than untreated TgCRND8 littermates
- spatial memory compared to non-Tg littermates (TgCRND8 mice [1]; drinking water 10 mg/ml): not significantly different from non-Tg littermates
- spatial memory / cognition compared to untreated TgCRND8 mice (TgCRND8 mice [1]; [17]): significantly improved cognition
- spatial memory compared to non-Tg littermates (TgCRND8 mice [1]; [17]): not significantly different from treated nTg littermates
- spatial learning compared to non-Tg littermates (TgCRND8 mice [1]; [18]): approached that of non-Tg littermates
- spatial learning compared to untreated TgCRND8 littermates (TgCRND8 mice [1]; [18]): better cognitive function compared to their untreated TgCRND8 littermates
- spatial learning compared to non-Tg littermates (TgCRND8 mice [1]; drinking water 10 mg/ml, prophylactic from 6 weeks until six months of age, listed as Epi-2-inosose): different from non-Tg littermates on all days of testing
- effect on non-Tg littermate performance (TgCRND8 mice [1]; non-Tg littermates, drinking water 10 mg/ml): no effect on non-Tg littermate performance
- effect on non-Tg littermate performance (TgCRND8 mice [1]; non-Tg littermates, drinking water 10 mg/ml, listed as Epi-2-inosose): no effect on non-Tg littermate behaviour
- effect on cognitive performance of non-Tg mice (TgCRND8 mice [1]; non-Tg mice, prophylactic administration): no effect on the cognitive performance of non-Tg mice
- Synaptophysin reactivity / levels (TgCRND8 mice [8]; 6 month prophylactic and treatment paradigms): significantly increased
- increase in synaptophysin reactivity in the hippocampus (TgCRND8 mice [8]; delayed treatment study): 15%
- increase in synaptophysin reactivity in the hippocampus (TgCRND8 mice [8]; prophylactic study): 33%
- Kaplan Meier cumulative survival (TgCRND8 mice [4]; drinking water 10 mg/ml): increased survival
- improvement of survival (TgCRND8 mice [4]; prophylactic treatment to six months of age, vs untreated): 50%
- open field test: rearing, grooming, walking, pausing (activity levels) (TgCRND8 mice [9]): indistinguishable; also recorded: does not affect activity levels
- Visual acuity (cued version of the Morris Water Maze test) (TgCRND8 mice [10]): not altered by treatment
- serum biochemistry: organ function ([11]; Tg and non-Tg mice treated): normal kidney, heart, liver and pancreas function
- ALP ([11]; serum, Treated TgCRND8): 73 ± 5 U/L
- ALT ([11]; serum, Treated TgCRND8): 30 ± 3 U/L
- Albumin ([11]; serum, Treated TgCRND8): 32 ± 2 g/L
- Bilirubin ([11]; serum, Treated TgCRND8): 1.8 ± 0.15 µmol/L
- Creatine ([11]; serum, Treated TgCRND8): 15.9 ± 2 µmol/L
- Globulin ([11]; serum, Treated TgCRND8): 18 ± 2 g/L
- Glucose ([11]; serum, Treated TgCRND8): 12 ± 0.6 mmol/L
- Total Protein ([11]; serum, Treated TgCRND8): 49 ± 0.7 g/L
- Urea ([11]; serum, Treated TgCRND8): 8.6 ± 0.4 mmol/L
- survival, weight, fur condition, cage behaviour [12]: no effect on survival, weight, fur condition, or cage behaviour of wild type mice

Compound: OC1C(O)C(O)C(O)C(O)C1O (stereo not drawn) [chiro-inositol, chiro-cyclohexanehexol, reference compound]
- activity against synthetic Aβ42 neurotoxicity (neurons): inactive
